Holding throughout (assay type): in vivo, male Sprague-Dawley (SD) rats
Data set [1] can be described thus: Rat PK: plasma xanomeline after subcutaneous (SC) dosing of xanomeline, prodrugs or pamoate salts at 5 mg/kg or 3.5 mg/kg (Example A-2). To be noted: parent xanomeline dosed SC; for Tmax / Cmax / AUC(0-inf) / AUC(0-t) / half-life: male, Sprague-Dawley; for AUC(0-inf): read-out: Xanomeline (SC) AUC0-inf; for AUC(0-t): read-out: Xanomeline (SC) AUC0-last; for half-life: read-out: Xanomeline (SC) T1/2 (converted). How it is done:
Samples were sent for method optimization and measurement of parent compound (xanomeline) via unique calibration lines and following acceptance QC's. Dose formulation concentrations were also measured, and PK parameters were determined (Cmax (ng/mL), Tmax (hr), Cl (ml/min/kg), Vdss (L/kg), t½ (hr), AUC0-t (ng/mL*hr), AUC0-inf (ng/mL*hr), MRT (hr), Bioavailability (% F) where warranted) using WinNon Lin software. Data (including bioanalytical results and assay performance) were reported in a tabulated format.
Formulation for SC administration: For SC dosing, xanomeline and xanomeline prodrugs were formulated as solution in 10% DMSO/90% HPCD (20% in water) to a concentration of 2.5 mg free metabolite material/mL or 1.75 mg free metabolite material/mL. This provided a dose of 5 mg free metabolite/kg or 3.5 mg free metabolite/kg, respectively, when administered SC in 2 mL/kg dosing volumes.
(§1) The pharmacokinetic properties of the synthesized xanomeline prodrugs after subcutaneous administration in a rat model were assessed. The concentration of xanomeline was measured in each rat at various sampling timepoints after subcutaneous administration of xanomeline or the synthesized xanomeline prodrugs to rats.
Dose formulations were made at equivalent concentrations of active compound (xanomeline) adjusted for molecular weight of the compounds. The synthesized xanomeline prodrugs were dosed at 5 mg/kg subcutaneous (SC) nominal dose except for xanomeline oxyisobutyl pivalate chloride prodrug and xanomeline oxypropyl pivalate chloride prodrug, which were dosed at 3.5 mg/kg subcutaneous. Nominal doses were used in PK parameter determinations. The parent compound (xanomeline) was dosed at 5 mg/kg subcutaneous (SC).

A short description of data set [2]: Rat PK: plasma xanomeline after single subcutaneous (SC) dosing of xanomeline or xanomeline prodrugs at 1 mg/kg (Example A-1). The note with it: xanomeline analyte in plasma; for AUC(0-inf): read-out: AUCINF_obs; for half-life: read-out: T½ (converted). How it is done: A pharmacokinetic (PK) study was performed in three male Sprague-Dawley (SD) rats following subcutaneous (SC) administration of xanomeline or test compounds (prodrugs of xanomeline) at 1 mg/kg. Parent compound (xanomeline) was measured in plasma.
Samples were sent for method optimization and measurement of parent compound (xanomeline) via unique calibration lines and following acceptance QC's. Dose formulation concentrations were also measured, and PK parameters were determined (Cmax (ng/mL), Tmax (hr), Cl (ml/min/kg), Vdss (L/kg), t½(hr), AUC0-t (ng/mL*hr), AUC0-inf (ng/mL*hr), MRT (hr), Bioavailability (% F) where warranted) using WinNon Lin software. Data (including bioanalytical results and assay performance) were reported in a tabulated format
• Step 1: A stock solution of the compound(s) were prepared to 1 mg/ml in DMSO • Step 2: A 10,000 ng/mL matched matrix standard was prepared using the stock solution(s) • Step 3: Calibration standards in matched matrix were prepared between 10,000 ng/ml and 0.5 ng/mL using serial dilution • Step 4: QC samples were prepared in matched matrix at 4000, 800, 400, 40 and 10 ng/mL Calibration Standards:
• Step 1: A stock of the IS was diluted to 1 mg/ml in DMSO • Step 2: An ISY is made by diluting the stock to 10 μg/ml in DMSO • Step 3: An ISZ is made by diluting the ISY to 25 ng/ml in 0.1% formic acid in acetonitrile
(§2) • Step 1: Add 10 μL of the standards, QCs and samples to a 96-well plate (extraction plate) • Step 2: To each standard, QC and test sample, add 100 μL of ISZ • Step 3: Sonicate for 2 min then mix the plate for approximately 2 min at 1200 rpm on a plate shaker • Step 4: Centrifuge the plate at 3000 rpm for 5 mins • Step 5: Add 50 μL 0.1% Formic acid in UP H2O to wells of a new 96-well plate • Step 6: Transfer 50 μL extracted sample to relevant position in second 96-well plate • Step 7: Mix at 1200 rpm for 2 minutes • Step 8: Heat seal and analyse on the LC-MS/MS system • Instrument: Xevo TQ-D with CTC Autosampler
• Step 1: A stock solution of the compound(s) were prepared to 1 mg/ml in DMSO • Step 2: A 10,000 ng/mL matched matrix standard was prepared using the stock solution(s) • Step 3: A 2,000 ng/ml matched matrix stock dilution was made from the 10,000 ng/ml stock dilution • Step 4: Standards were prepared at a concentration of 200 ng/ml to 0.01 ng/ml in matched matrix via serial dilution from the second Stock dilution • Step 5: QC samples were prepared in matched matrix at 150, 40, 20, 4 and 0.4 ng/mL Calibration Standards:
as §2, with “min” for “mins”, “formic” for “Formic”, “min” for “minutes”, “TQ-Absolute UHPLC-MS/MS” for “TQ-D with CTC Autosampler”
Formulation for SC administration: For SC dosing, xanomeline and xanomeline prodrugs were formulated as solution in 10% DMSO/90% HPCD (20% in water) to a concentration of 0.5 mg free metabolite material/mL. This provided a dose of 1 mg free metabolite/kg when administered SC in 2 mL/kg dosing volumes.
as §1
Dose formulations were made at equivalent concentrations of active compound (xanomeline) adjusted for molecular weight of the compounds. The synthesized xanomeline prodrugs were dosed at 1 mg/kg subcutaneous (SC) nominal dose. […]

The nature of data set [3]: Rat PK: plasma xanomeline after oral (PO) dosing of xanomeline or xanomeline prodrugs at 10 mg/kg (Example A-7). The note with it: analyte xanomeline in plasma, 10 mg/kg of xanomeline. Here is the method: Samples were sent for method optimization and measurement of parent compound (xanomeline) via unique calibration lines and following acceptance QC's. Dose formulation concentrations were also measured, and PK parameters were determined (Cmax (ng/mL), Tmax (hr), Cl (ml/min/kg), Vdss (L/kg), t½ (hr), AUC0-t (ng/mL*hr), AUC0-inf (ng/mL*hr), MRT (hr), Bioavailability (% F) where warranted) using WinNon Lin software. Data (including bioanalytical results and assay performance) were reported in a tabulated format and QC'd.
Compound was dissolved in DMSO:HPCD (20% w/v in water) [10:90] 2 mg API/mL to provide doses of 10 mg API/kg when administered PO in 5 mL/kg dosing volumes.
The pharmacokinetic properties of the synthesized xanomeline prodrugs after oral administration in a rat model were assessed. The concentration of xanomeline was measured in each rat at various sampling timepoints after oral administration of xanomeline or the synthesized xanomeline prodrugs to rats.
Dose formulations were made at equivalent concentrations of active compound (xanomeline) adjusted for molecular weight of the compounds. The synthesized xanomeline prodrugs were dosed at 10 mg/kg oral (PO) nominal dose. Nominal doses were used in PK parameter determinations. The parent compound (xanomeline) was dosed at 10 mg/kg oral (PO).

The mark [4] stands for this setting: male, Sprague-Dawley, plasma, sc, Mean of animals (Table 3).
[5] abbreviates: male, Sprague-Dawley, plasma, sc, individual animal (Table 3).

Where “and” joins values, the source holds several entries; their conditions need not be identical. Identical values can stand only once.

With `CCCCCCOc1nsnc1C1=CCCN(C)C1` [Xanomeline, 3-hexyloxy-4-(1-methyl-3,6-dihydro-2H-pyridin-5-yl)-1,2,5-thiadiazole], the Tmax (in general, the time from dosing to the highest level) in data set [1] (in vivo, individual animals) was determined as 1 h. In data set [1] (plasma, sc, Mean), the Cmax (usually the peak of the concentration-time curve) was 43 ng/mL, the time to peak (Tmax) stood at 0.833 h, the AUC(0-inf) was determined as 154 ng·h/mL and the AUC(0-t) came out at 171 ng·h/mL. Moreover, the half-life in data set [1] (plasma, sc, Mean) is 1.37 h. Besides, in data set [1] (plasma, sc, individual animals), the Cmax is 54.6 ng/mL, the time to peak (Tmax) worked out at 0.5 h, the AUC(0-inf) is 185 ng·h/mL and the AUC(0-t) worked out at 180 ng·h/mL. The half-life in data set [1] (plasma, sc, individual animals) was 1.5 h. Also, the “Xanomeline (SC) Tlast” value in data set [1] (Mean) was 37.3 h. Moreover, in data set [1] (individual animals), the “Xanomeline (SC) AUC0-inf” value was 123 ng·h/mL; the “Xanomeline (SC) AUC0-last” value is 213 ng·h/mL and 121 ng·h/mL; the “Xanomeline (SC) Cmax” value is 30.0 ng/mL and 44.4 ng/mL; the “Xanomeline (SC) T1/2” value is given as 1.24 h. The “Xanomeline (SC) Tlast” value in data set [1] (individual animals) is 8.00 h (2×) and 96.0 h. In data set [2] (male, Sprague-Dawley, in vivo, individual animal (Table 3)), the Tmax came to 0.25 h. Besides, in data set [2] (setting [4]), the AUC(0-t) stood at 38.3 ng·h/mL, the AUC(0-inf) is 42 ng·h/mL and the half-life is 1.85 h. The maximum concentration (Cmax) in data set [2] (male, Sprague-Dawley, plasma, sc, Mean of animals (Table 3), read-out: Cmax) was determined as 14.4 ng/mL. For the same compound, in data set [2] (setting [5]), the AUC(0-t) came out at 40.1 ng·h/mL, the AUC(0-inf) came out at 46 ng·h/mL and the half-life is 2.3 h. In addition, the maximum concentration (Cmax) in data set [2] (male, Sprague-Dawley, plasma, sc, individual animal (Table 3), read-out: Cmax) came out at 15.9 ng/mL. Besides, the time of peak concentration (Tmax) in data set [2] (male, Sprague-Dawley, Mean of animals (Table 3)) was determined as 0.25 h. The Tlast in data set [2] (Mean of animals (Table 3)) came out at 7.00 h. In addition, in data set [2] (individual animal (Table 3)), the AUCINF_obs is 42.9 ng·h/mL and 37.0 ng·h/mL; the AUClast is 40.0 ng·h/mL and 34.9 ng·h/mL; the Cmax is 15.1 ng/mL and 12.3 ng/mL; the Tlast amounted to 7.00 h. Further, in data set [2] (individual animal (Table 3)), the T½ was 1.66 h and 1.58 h.

On to “xanomeline methyl hexylcarbonate chloride prodrug”, for which the “Xanomeline Tlast” value in data set [3] (Mean of 3 animals) was 2.67 h; in data set [3] (individual animal, 10 mg/kg), 1.00 h and 7.00 h.

Source of the values: patent US20240368149A1, “ANALOGS OF XANOMELINE” (Terran Biosciences Inc., priority 2023, published 2024).
